Results as given in a melting point compilation (Tetko et al.; mined from patent text by program, amines drawn as free bases though some values may be those of a salt).
Non-standard residues stand in square brackets, D forms with d. Residues, ends and D or L forms follow the SMILES beside them. *: point of attachment. Tos = Cc1ccc(S(=O)(=O)*)cc1; OBn = c1ccc(CO*)cc1; Sar = CNCC(=O)O

Row | Compound | melting point [°C]
1 | CC(C)c1cc(C(C)C)c(S(=O)(=O)n2ccc3ccccc32)c(C(C)C)c1 | 131 to 133
2 | CCCc1c(OCCCOc2ccc3c(c2CCC)OC(C)(CCC(=O)OC)CC3)ccc(C(C)=O)c1O (configuration not stated) | 53 to 55
3 | CC(C)=CCC/C(C)=C/CC/C(C)=C/C(N)=O | 53 to 53.5
4 | CCOC(=O)c1cc2c(nc1C)C(CBr)CCCC2 (configuration not stated) | 50 to 51
5 | Cc1nn(C2=C(F)CC(F)(C#N)C=C2)c(=O)[nH]c1=O (configuration not stated) | 214
6 | CC1CCC2(C)C(=CCC3C4CC(Br)C(=O)C4(C)CCC32)C1 (configuration not stated) | 186 to 188
7 | COc1ccc(COc2cc(N)c(Cl)cc2C(=O)CCCCN2CCCCC2)cc1OC | 120 to 122
8 | COc1cc(OCC(CO)CO)c(C=CC(=O)c2ccc(S(=O)(=O)Nc3cc(C)on3)cc2)cc1-c1cccs1 | 165 to 166
9 | CCc1[nH]n(C2CCCC2)c2nc(-c3cccc(OCCN4CCCCC4)c3)nc(=O)c1-2 | 180
10 | CCNc1nc2ccc(CCc3ccccn3)cc2o1 | 57 to 59
11 | CC1=CC(C)(C)OC1=O | 54 to 55
12 | CCc1cncnc1O | 95 to 97
13 | COc1ccc(CCNC(=O)C=Cc2cccs2)cc1S(=O)(=O)NC(=S)NC(C)C | 96
14 | OCCN1CCN(C2=Nc3ccccc3Sc3ccccc32)CC1 | 57 to 60
15 | CCCCCCc1nc2c(N)nc3ccccc3c2n1CCCCNS(=O)(=O)c1ccccc1 | 84.8 to 85.4
16 | CO[C@H]1CN(c2c(F)c(N)c3c(=O)c(C(=O)O)cn([C@@H]4C[C@@H]4F)c3c2C)C[C@@H]1C1(N)CC1 | 202 to 204
17 | COc1cc(OCc2ccccn2)ccc1/C=C/c1cc(/C=C/c2ccc3[nH]nnc3c2)n[nH]1 | 113 to 120
18 | CC(=O)Nc1ccc(-n2ccnc2S(=O)Cc2ccccc2N2CCOCC2)nc1 (configuration not stated) | 207 to 209
19 | CCn1cc(C(=O)O)c(=O)c2cc(F)c(N)nc21 | 299 to 303
20 | COc1cccc2c1[C@@H](Oc1cc(C(=O)N(C)C)cn3c(C)c(C)nc13)[C@H](O)C2 (relative stereo) | 129
21 | OC1(c2ccc(Cl)cc2)CCNC1 (configuration not stated) | 79 to 80

Row | Compound | melting point [°C]
22 | CCCc1nc2c(N)nc3cccnc3c2n1CCCCCC(N)=O | 216 to 218
23 | O=C(N[C@H]1CC[C@H](CCN2CCC(c3cccc4c3CCO4)CC2)CC1)c1ccc(-c2cccnc2)cc1 | 224
24 | CCCCN1CCC(NC(=O)c2cnc3c(OC)cccc3c2Nc2ccc(C(=O)NC3CCN(Cc4ccccc4)CC3)cc2)CC1 | 215 to 220
25 | CCC(CNC(=O)c1cc(C#N)c(Cl)cc1OC)NC(C)C (configuration not stated) | 103 to 105
26 | NC(=O)COc1ccccc1C(=O)Nc1ccc(C(=O)N2CCCCc3ccccc32)cc1 | 198 to 199
27 | CCC(C)(CC)c1nnc(NC(=O)c2c(OC)cccc2OC)[nH]1 | 279 to 280
28 | COc1ccc(S(=O)(=O)N2C(=O)C(NCCC(=O)OC(C)(C)C)(c3ccccc3OC)c3cc(Cl)ccc32)c(OC)c1 (configuration not stated) | 175
29 | Cc1oc(-c2ccccc2)nc1COc1ccc(COc2nn(-c3ccccc3)cc2/C=C/C(=O)O)cc1 | 186 to 187
30 | OCc1cccc2c(-c3ccc(Br)cc3)nccc12 | 226
31 | COc1cccc(/C=C/C(=O)N2CC(CCl)c3c2cc([N+](=O)[O-])c2ccccc32)c1 (configuration not stated) | 200
32 | CCCCc1ccc(CCc2ccc(-c3ccc(F)cc3F)cc2)cc1 | 40
33 | CCN(CC)CC/C=C/c1cc2ncc(C#N)c(Nc3ccc(Sc4nccn4C)c(Cl)c3)c2cc1OC | 194 to 202
34 | c1ccc(C2(Cn3cncn3)OCCO2)cc1 | 127
35 | CC(C)N(Sc1nc2ccccc2s1)C(C)(C)C | 68 to 70
36 | CC(C)CCSc1cc(C(=O)O)cc([N+](=O)[O-])c1-c1ccccc1 | 143 to 144
37 | CC(C)(C)C(=O)c1c[nH]c2ncc(-c3ccc(N4CCN(CCO)CC4)cc3)nc12 | 211 to 213
38 | CC(C)(C)c1ccc(OCC(O)CN(CCO)CCO)cc1 (configuration not stated) | 45 to 47
39 | Cc1nc2c(-c3cccc(N4CCN(CCO)CC4)c3)cnn2c(N)c1-c1ccc(F)cc1 | 209 to 212
40 | CC(C)(C)CC(C)(C)c1cc(-n2nc3ccc(C(=O)O)cc3n2)c(O)c(C(C)(C)c2ccccc2)c1 | 219 to 221
41 | Cc1ccc(S(=O)(=O)N(C)CC(=O)N[C@@H](Cc2ccccc2)C(=O)OCc2ccccc2)cc1 (Tos-[Sar]-Phe-OBn) | 80 to 82
42 | Cc1cc(C)c(C=O)c(O)c1 | 46 to 48

Row | Compound | melting point [°C]
43 | COc1cc(C(=O)Nc2c(Cl)cc3cn[nH]c3c2C(=O)NC2(C)CSC2)n(-c2ncccc2Cl)n1 | 162 to 165
44 | COC(=O)C(C)(C)Cc1c(C(=O)C2CC2)c2cc(OCc3ccc4ccccc4n3)c(C(=O)C3CC3)cc2n1Cc1ccc(Cl)cc1 | 166 to 167
45 | O=C(O)[C@H](CCc1ccccc1)NS(=O)(=O)c1ccc2c(c1)sc1ccccc12 | 210 to 212
46 | COc1cc(-c2cnc3[nH]cc(C(=O)C(C)(C)OC)c3n2)cc(OC)c1OC | 238 to 239
47 | COc1ccc(C2CCSCC2)cc1OC1CCCC1 | 83 to 85
48 | CC1(C)OC(=O)C(OC2CCCCC2)=C1c1ccc(S(C)(=O)=O)cc1 | 143 to 144
49 | CON=C(C(=O)N(C)C)C(C)=NOCc1ccc(C)cc1 | 68 to 69
50 | COc1ccc(F)cc1NC(=O)Nc1ccc(N2CCN(C(=O)Nc3ccc(OCC(O)CO)cc3C(F)(F)F)CC2)nc1 (configuration not stated) | 195
51 | CCOC(=O)N1CCc2nc3ccccc3c(Oc3ccccc3)c2CC1 | 150
52 | CCN1C(=O)C(C)(C)C(=O)N(C)c2cc(CCN(CCn3ccc4oc(C)cc4c3=O)Cc3cc(C)nn3C)ccc21 | 134 to 140
53 | CCCCCCCc1cc(O)cc(O)c1C(=O)OCc1ccccc1 | 104
54 | Cc1ncc(CSC(=O)c2cccc(C(=O)SCc3cnc(C)c4c3COC(C)(C)O4)c2)c2c1OC(C)(C)OC2 | 125 to 127
55 | O=C(OCc1ccccc1)C1(Nc2ccccc2)CCN(CCc2ccccc2)CC1 | 76.7
56 | CC1Cc2cccc(S(N)(=O)=O)c2S1(=O)=O (configuration not stated) | 167 to 169
57 | CS(=O)(=O)c1cccc(-n2c(=O)c(CCCc3ccncc3)cc3cccnc32)c1 | 127 to 131
58 | C(#Cc1cc2ccccc2s1)c1ccc(-c2ccccc2)s1 | 185 to 186
59 | CCOC(=O)/C=C/c1ccc2c(c1)nc(N)c1nc(CC)n(CC3CCOCC3)c12 | 209 to 210
60 | O=C(O)CCC(F)(F)C(F)(F)CCC(=O)O | 204
61 | CCOC(=O)c1ccc(N=C(Nc2ccc(C(=O)OCC)cc2)c2ccc(C(C)(C)C)cc2)cc1 | 212 to 219

Other lines, results leading:

Row | melting point [°C] | Compound
62 | 119 to 120 | Cc1cc(N2CCN(Cc3ccc(F)cc3)C2=O)sc1C(=O)NCc1cccnc1
63 | 184 to 188 | CN(C)C(=O)c1cc(O)ccc1C=Cc1ccc(O)cc1
64 | 220 to 223 | CCc1nn2c(c1Oc1cc(Cl)cc(Cl)c1)C(=O)NCC2
65 | 134 to 135 | CC(=O)CCOc1c(-c2ccc(S(C)(=O)=O)cc2)cnn(-c2ccc(F)c(F)c2)c1=O
66 | 183 to 185 | Cn1c(COc2cccc([N+](=O)[O-])c2)nc2ccccc21
67 | 160 | Cc1cc(C)cc(S(=O)(=O)n2c(CCCCC(=O)O)cc3nc(Cl)ccc32)c1
68 | 230 to 235 | O=C1Cc2c(OCCN3CCc4ccccc4C3)ccc(F)c2N1
69 | > 300 | O=c1[nH]c2ccccc2n2cnc(-c3ccc(F)cc3)c12
70 | 68 to 69 | COc1ccc2oc(C(=O)NCc3ccccc3)c(OC(C)C)c2c1
71 | 134 to 136 | COc1ccc(COCc2nc(C(C)C)c(Sc3cc(Cl)cc(Cl)c3)n2CC(F)(F)F)cc1
72 | 196 to 197 | Cn1cc(-c2cnccn2)cc(Br)c1=O
73 | 234 to 236 | O=C(O)Cc1cccc2c(-c3ccc(Cl)cc3)nccc12
74 | 187 | O=C(Cc1ccccc1)Nc1ccc2ccc(Cl)nc2n1
75 | 259 | CCCn1c(=O)c2[nH]c(/C=C/c3cccc(Cl)c3)nc2n(CCC)c1=O
76 | 236 to 237 | CC1(C)OC(=S)Nc2ccc(-c3cccc(C#N)c3)cc21
77 | 186 to 195 | COC(=O)c1cc(-c2ccc(-c3ccccc3)cc2)nn(CC(C)C)c1=O
78 | 182 to 183 | COc1ccc(Oc2ccc3c(c2)C=C(C(=O)O)C(C(F)(F)F)O3)cc1 (configuration not stated)
79 | 72 to 74 | C=CCOc1ccc2c(c1)OCC1c3ccccc3OC21 (configuration not stated)

Row | melting point [°C] | Compound
80 | 88 to 90 | CC(=O)Oc1c(Sc2ccccc2)sc2ccccc12
81 | 229 to 231 | CN(C)C(=O)c1nc(-c2ccccc2)nc2c1c1ccc(F)cc1n2C
82 | 159 to 162 | CN1CCC(C2CCN(c3ncc4ncnc(Nc5ccc(F)c(Cl)c5)c4n3)CC2)CC1
83 | 49.5 to 50.5 | Cc1ccc(CN(C(=O)C2CC2)c2nc(C)no2)cc1
84 | 259 to 260 | Cc1cccc(C)c1CNc1cc(C(=O)NCCO)cc2c1nc(C)n2C
85 | 104 | O=C(c1cccc(O)c1)c1cccc(Cl)c1
86 | 202 to 204 | CNC(=O)N1C=CSC1c1sc(SC)c2c1CC(C)(C)CC2=O (configuration not stated)
87 | 75 to 77 | CC1(c2ccccc2)OC(C=Cc2ccsc2)=CC1=O (configuration not stated)
88 | 145 to 148 | O=C1c2cc3nnn(CCCc4cccc(F)c4)c(=O)c3cc2OC2CCCN12 (configuration not stated)
89 | 127 to 129 | Cc1ccnc(-n2ccnc2S(=O)Cc2ccccc2N(C)C)c1 (configuration not stated)
90 | 116 to 118 | Nc1ccc(F)c(NC(=O)C(F)(F)F)c1
91 | 222 to 225 | NC(=O)CNC(=O)c1cc2c(Oc3ccc(Cl)cc3)cncc2s1
92 | 263 to 265 | O=C1Nc2cc(Cl)ccc2Oc2cscc21
93 | 119 | CCN(CC)C(=O)c1cc2sccc2c(-c2ccccc2Cl)n1
94 | 259 to 261 | O=C(O)c1ccc(-c2ccc3oc([N+](=O)[O-])c(-c4ccccc4)c3c2)cc1
95 | 79 to 81 | c1ccc2c(c1)CCc1c-2noc1N1CCCNCC1
96 | 61 to 62 | Nc1ccccc1-c1ccc(Br)cc1N
97 | 143 | CNC(=O)c1cccc(-c2c(C)cc(C)cc2C)c1
